In the NIST ThermoML archive (doi:10.1021/je050020m):

Assay: xn = mol fraction of the nth substance listed
Settings: Liquid, Vibrating tube method

CCCCCCCCCC [decane] + O=C=O
Settings | mass density [kg/m3]
362.65 K, 10044 kPa, x2 = 0.2369 | 691.88
362.65 K, 11011 kPa, x2 = 0.2369 | 693.13
362.65 K, 12005 kPa, x2 = 0.2369 | 694.38
362.65 K, 13039 kPa, x2 = 0.2369 | 695.64
362.65 K, 14013 kPa, x2 = 0.2369 | 696.82
362.65 K, 15072 kPa, x2 = 0.2369 | 698.07
362.65 K, 15510 kPa, x2 = 0.9663 | 452.61
362.65 K, 16012 kPa, x2 = 0.2369 | 699.18
362.65 K, 16012 kPa, x2 = 0.9663 | 471.04
362.65 K, 17007 kPa, x2 = 0.9663 | 504.42
362.65 K, 17009 kPa, x2 = 0.2369 | 700.33
362.65 K, 18008 kPa, x2 = 0.2369 | 701.44
362.65 K, 18010 kPa, x2 = 0.9663 | 534.34
362.65 K, 19013 kPa, x2 = 0.9663 | 561.23
362.65 K, 19020 kPa, x2 = 0.2369 | 702.57
362.65 K, 20006 kPa, x2 = 0.2369 | 703.64
362.65 K, 20015 kPa, x2 = 0.9663 | 585.01
362.65 K, 21029 kPa, x2 = 0.9663 | 606.13
362.65 K, 21068 kPa, x2 = 0.2369 | 704.82
362.65 K, 22007 kPa, x2 = 0.2369 | 705.81
362.65 K, 22007 kPa, x2 = 0.9663 | 624.31
362.65 K, 23022 kPa, x2 = 0.9663 | 641.03
362.65 K, 23055 kPa, x2 = 0.2369 | 706.93
362.65 K, 24015 kPa, x2 = 0.9663 | 655.59
362.65 K, 24030 kPa, x2 = 0.2369 | 707.95
362.65 K, 25028 kPa, x2 = 0.9663 | 669.28
362.65 K, 25056 kPa, x2 = 0.2369 | 709.02
362.66 K, 2031 kPa, x2 = 0.0551 | 678.97
362.66 K, 3029 kPa, x2 = 0.0551 | 680.17
362.66 K, 4134 kPa, x2 = 0.0551 | 681.5
362.66 K, 5034 kPa, x2 = 0.0551 | 682.58
362.66 K, 6050 kPa, x2 = 0.0551 | 683.77
362.66 K, 7045 kPa, x2 = 0.0551 | 684.91
362.66 K, 8030 kPa, x2 = 0.0551 | 686.02
362.66 K, 9020 kPa, x2 = 0.0551 | 687.12
362.66 K, 9024 kPa, x2 = 0.4536 | 693.68
362.66 K, 10012 kPa, x2 = 0.4536 | 695.47
362.66 K, 10044 kPa, x2 = 0.0551 | 688.25
362.66 K, 11025 kPa, x2 = 0.0551 | 689.34
362.66 K, 11031 kPa, x2 = 0.4536 | 697.25
362.66 K, 11987 kPa, x2 = 0.0551 | 690.35
362.66 K, 12002 kPa, x2 = 0.4536 | 698.93
362.66 K, 13025 kPa, x2 = 0.0551 | 691.46
362.66 K, 13028 kPa, x2 = 0.4536 | 700.66
362.66 K, 14008 kPa, x2 = 0.4536 | 702.25
362.66 K, 14075 kPa, x2 = 0.0551 | 692.5
362.66 K, 15024 kPa, x2 = 0.4536 | 703.87
362.66 K, 15026 kPa, x2 = 0.0551 | 693.52
362.66 K, 16000 kPa, x2 = 0.4536 | 705.42
362.66 K, 16020 kPa, x2 = 0.0551 | 694.47
362.66 K, 17003 kPa, x2 = 0.0551 | 695.45
362.66 K, 17017 kPa, x2 = 0.4536 | 706.96
362.66 K, 18002 kPa, x2 = 0.4536 | 708.44
362.66 K, 18032 kPa, x2 = 0.0551 | 696.46
362.66 K, 19030 kPa, x2 = 0.0551 | 697.38
362.66 K, 19030 kPa, x2 = 0.4536 | 709.94
362.66 K, 19998 kPa, x2 = 0.0551 | 698.32
362.66 K, 20001 kPa, x2 = 0.4536 | 711.37
362.66 K, 21029 kPa, x2 = 0.4536 | 712.8
362.66 K, 21052 kPa, x2 = 0.0551 | 699.32
362.66 K, 22014 kPa, x2 = 0.4536 | 714.18
362.66 K, 22028 kPa, x2 = 0.0551 | 700.22
362.66 K, 22996 kPa, x2 = 0.0551 | 701.1
362.66 K, 23024 kPa, x2 = 0.4536 | 715.57
362.66 K, 24006 kPa, x2 = 0.4536 | 716.91
362.66 K, 24036 kPa, x2 = 0.0551 | 702.1
362.66 K, 25008 kPa, x2 = 0.0551 | 702.93
362.66 K, 25025 kPa, x2 = 0.4536 | 718.29
